The record followed here is patent US10323021B2, “Triazoles as NR2B receptor inhibitors” (Janssen Pharmaceuticals, Inc., priority 2014, dated 2019).

The test system of assay [1] is mice (forced swim test, model of depression). Kind of assay: Forced swim test in mice. The settings on record: p.o., 30 minutes before the test, male NMRI mice. The class given is in vivo, mouse. The method, then:
The compounds of the invention show significant antidepressive effects in the forced swim test in mice, an animal model of depression at doses of 100 mg/kg or below.
The method, which detects antidepressant activity, follows that described by Porsolt et al (Arch. Int. Pharmacodyn., 229, 327-336, 1977), which is incorporated by reference herein in its entirety.
Mice forced to swim in a situation from which they cannot escape rapidly become immobile. Antidepressants decrease the duration of immobility.
Male NMRI mice (Janvier, France), weighing 20-30 g, were individually placed in a cylinder (height=24 cm; diameter=13 cm) containing 10 cm water (22° C.) from which they cannot escape.
The mice were placed in the water for 6 minutes and the duration of immobility during the last 4 minutes was measured. The latency to the first bout of immobility was also recorded starting from the beginning of the test. 10 mice were studied per group. The test substance was administered p.o. 30 minutes before the test and compared with vehicle control group. The test was performed blind.

The target in assay [2] is T1, rat NR1/NR2B receptor (Rattus norvegicus (Rat), UniProt P35439+Q00960). As to the kind of experiment: NR2B binding assay: inhibition of specific [3H]-Ifenprodil binding to the rat NR1/NR2B receptor. The settings on record: rat brain membranes, [3H]-Ifenprodil, Hill-plot 2-parameter model. The method, then:
Inhibition of Specific Binding to the Rat NR1/NR2B Receptor
Male Wistar rats (180 to 200 g) were killed by suffocation in a CO2 chamber for two minutes. Whole brains without cerebellum were removed and dissected on ice, placed into closed vials and stored at −70° C.
Membrane fractions were prepared and tested using standard techniques. At the time of the assay, 1 g of the brains was placed into 25 ml of 50 mM Tris/10 mM EDTA buffer, pH 7.1, (25 vol. per g of original tissue) and homogenized for 30 sec at 20000 rpm with an Ultraturrax T25 (Jahnke & Kunkel, IKA-Labortechnik, Staufen, Germany). The homogenate was centrifuged at 4° C. for 10 min at 48000 g (OPTIMA L-70, Beckman, Palo Alto, Calif. 94304, USA).
The supernatant was discarded and the pellet was homogenized on ice for 30 sec at 20000 rpm with an Ultraturrax and again centrifuged at 48000 g for 30 minutes at 4° C. The resulted pellet was resuspended in 25 ml of 50 mM Tris/10 mM EDTA buffer, homogenized for 30 sec with an Ultraturrax, aliquoted, frozen at −70° C. and stored until use.
After thawing on the day of the assay, a 5 ml membrane aliquot was centrifuged at 48000 g for 30 min at 4° C. The pellet was resuspended in 5 ml of 5 mM Tris/1 mM EDTA buffer, pH 7.4, homogenized for 30 sec at 20000 rpm with an Ultraturrax and centrifuged at 48000 g for 30 min at 4° C. This was repeated twice. The final pellet was homogenized in 5 ml of 5 mM Tris/1 mM EDTA buffer at 4° C. with an Ultraturrax and used for the Ifenprodil-binding assay as described in the following.
Nonspecific binding was estimated in the presence of […] CP101.606. The samples were incubated for 60 min. at 4° C.
The incubation was terminated by filtration of the membrane preparations using Filtermat B (Pharmacia, Uppsala Sweden) and a Micro Cell Harvester (Skatron, Lier, Norway). The Filtermat B had been presoaked with 1% polyethylene imine and carefully washed with 50 mM Tris/HCl-buffer pH 7.7 after the filtration to separate free and bound radioactivity.
The optimal amount of membrane preparation in the assay had been determined and optimized for each membrane preparation separately before the test.
For pipetting of the incubation mixture we routinely used the robot Biomek2000 (Fa. Beckman).
For determination of IC50 values the Hill-plot, 2-parameter-model was used.

Assay [3] deals with T1, rat NR1/NR2B receptor. Kind of assay: RRNR2BB: inhibition of specific [3H]-Ifenprodil binding to the rat NR1/NR2B receptor. The settings on record: rat brain membranes, Hill-plot 2-parameter model.
Method: After thawing on the day of the assay, a 5 ml membrane aliquote was centrifuged at 48000 g for 30 min at 4° C. […] This step was repeated twice. The final pellet was homogenized in 5 ml of 5 mM Tris/1 mM EDTA buffer at 4° C. with an Ultraturrax and used for the Ifenprodil-binding assay.
Nonspecific binding was estimated in the presence of 10 M CP101.606. The samples were incubated for 60 min. at 4° C.
Binding was terminated by filtration of the incubated membrane preparations using Filtermat B (Pharmacia, Uppsala Sweden) and a Micro Cell Harvester (Skatron, Lier, Norway). The Filtermat B had been presoaked with 1% polyethylenimine and carefully washed with 50 mM Tris/HCl-buffer pH=7.7 after the filtration to separate free and bound radioactivity.
For pipetting of the incubation mixture the robot Biomek2000 (Fa. Beckman) was used.
The specific binding in this assay was about 80%.
Another assay has as its target hERG receptor (Homo sapiens (Human), UniProt Q12809). As to the kind of experiment: HERGBD: inhibition of specific [3H]-Dofetilide binding to the hERG receptor. The settings on record: HEK hERG membranes, Hill-plot 2-parameter model.

SMILES strings stand for the structures.

T1 sequence (Q00960 27-1482, other chains not shown): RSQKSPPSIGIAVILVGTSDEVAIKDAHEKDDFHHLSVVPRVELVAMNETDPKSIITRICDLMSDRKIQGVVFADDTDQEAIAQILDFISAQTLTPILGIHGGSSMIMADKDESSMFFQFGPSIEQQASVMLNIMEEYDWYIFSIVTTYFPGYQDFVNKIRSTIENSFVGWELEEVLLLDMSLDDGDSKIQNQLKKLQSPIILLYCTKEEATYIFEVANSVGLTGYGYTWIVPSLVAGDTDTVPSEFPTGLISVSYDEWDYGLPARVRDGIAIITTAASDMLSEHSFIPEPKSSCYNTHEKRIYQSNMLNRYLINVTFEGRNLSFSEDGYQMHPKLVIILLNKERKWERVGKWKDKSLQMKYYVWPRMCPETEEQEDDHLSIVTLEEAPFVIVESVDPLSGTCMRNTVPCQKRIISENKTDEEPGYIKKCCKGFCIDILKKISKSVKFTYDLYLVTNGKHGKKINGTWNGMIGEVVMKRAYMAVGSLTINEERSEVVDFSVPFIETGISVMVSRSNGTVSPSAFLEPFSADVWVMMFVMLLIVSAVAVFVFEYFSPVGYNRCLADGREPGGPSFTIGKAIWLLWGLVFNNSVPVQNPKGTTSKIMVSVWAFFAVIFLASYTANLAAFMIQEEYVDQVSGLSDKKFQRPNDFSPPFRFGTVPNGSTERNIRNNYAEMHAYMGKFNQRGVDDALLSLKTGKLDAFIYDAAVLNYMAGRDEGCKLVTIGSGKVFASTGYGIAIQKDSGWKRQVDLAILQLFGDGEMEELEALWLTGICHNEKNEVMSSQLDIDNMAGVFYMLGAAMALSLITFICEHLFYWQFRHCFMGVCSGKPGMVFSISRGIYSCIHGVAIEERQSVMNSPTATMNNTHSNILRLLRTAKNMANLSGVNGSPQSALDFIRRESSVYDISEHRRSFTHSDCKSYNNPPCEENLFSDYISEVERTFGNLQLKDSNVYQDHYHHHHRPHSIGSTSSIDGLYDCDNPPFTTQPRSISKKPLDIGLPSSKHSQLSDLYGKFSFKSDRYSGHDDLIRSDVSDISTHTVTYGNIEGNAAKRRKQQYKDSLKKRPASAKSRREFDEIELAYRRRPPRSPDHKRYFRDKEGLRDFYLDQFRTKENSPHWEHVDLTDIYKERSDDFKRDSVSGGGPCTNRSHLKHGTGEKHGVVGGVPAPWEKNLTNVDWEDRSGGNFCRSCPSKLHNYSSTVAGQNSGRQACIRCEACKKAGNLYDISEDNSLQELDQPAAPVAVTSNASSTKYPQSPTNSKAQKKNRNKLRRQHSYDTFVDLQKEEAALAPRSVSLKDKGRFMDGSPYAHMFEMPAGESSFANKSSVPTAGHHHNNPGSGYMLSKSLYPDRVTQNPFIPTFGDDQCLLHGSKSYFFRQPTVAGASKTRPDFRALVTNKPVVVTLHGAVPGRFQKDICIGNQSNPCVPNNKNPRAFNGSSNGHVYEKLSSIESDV
Chain of hERG receptor (Q12809 whole entry): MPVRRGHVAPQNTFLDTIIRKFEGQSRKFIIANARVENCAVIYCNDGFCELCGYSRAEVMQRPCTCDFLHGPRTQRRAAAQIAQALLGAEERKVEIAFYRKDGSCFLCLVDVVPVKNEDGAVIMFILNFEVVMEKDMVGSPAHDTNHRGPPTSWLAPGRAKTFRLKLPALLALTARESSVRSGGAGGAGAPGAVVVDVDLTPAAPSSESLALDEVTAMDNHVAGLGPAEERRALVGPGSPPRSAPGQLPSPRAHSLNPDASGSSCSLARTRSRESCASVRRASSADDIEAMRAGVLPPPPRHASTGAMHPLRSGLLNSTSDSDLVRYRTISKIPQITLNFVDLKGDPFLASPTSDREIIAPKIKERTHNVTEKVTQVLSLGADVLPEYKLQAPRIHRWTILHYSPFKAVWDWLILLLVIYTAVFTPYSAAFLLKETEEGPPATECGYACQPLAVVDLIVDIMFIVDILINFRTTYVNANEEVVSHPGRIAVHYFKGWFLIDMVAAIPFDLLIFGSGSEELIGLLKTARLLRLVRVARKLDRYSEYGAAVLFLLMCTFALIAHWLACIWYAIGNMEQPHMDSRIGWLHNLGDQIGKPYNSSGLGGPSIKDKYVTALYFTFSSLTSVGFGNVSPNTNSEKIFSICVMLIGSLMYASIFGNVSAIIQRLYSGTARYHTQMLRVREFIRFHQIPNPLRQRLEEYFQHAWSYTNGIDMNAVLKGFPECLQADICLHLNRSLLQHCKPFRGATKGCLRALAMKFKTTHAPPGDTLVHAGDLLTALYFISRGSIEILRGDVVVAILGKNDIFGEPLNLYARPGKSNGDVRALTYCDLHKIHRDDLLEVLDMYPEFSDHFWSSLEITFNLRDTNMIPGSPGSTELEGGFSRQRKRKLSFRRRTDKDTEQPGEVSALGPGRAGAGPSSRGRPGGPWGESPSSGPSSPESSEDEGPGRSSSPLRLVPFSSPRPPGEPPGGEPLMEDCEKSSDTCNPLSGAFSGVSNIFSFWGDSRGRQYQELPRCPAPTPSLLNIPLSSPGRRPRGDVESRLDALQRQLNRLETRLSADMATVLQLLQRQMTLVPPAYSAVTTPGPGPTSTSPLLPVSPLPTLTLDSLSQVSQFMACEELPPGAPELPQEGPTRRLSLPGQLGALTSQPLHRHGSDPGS
Method for hERG receptor: Inhibition of Specific Binding to the hERG—Receptor (HERGBD)
A HEK cell line with stable transfected human ERG receptor was used for the assay. The cells were grown adherently and maintained in DULBECCOS' MEM medium with 10% FBS, 1% non-essential amino acids, 1% Penicillin/Streptomycin and 400 μg/ml G418 (Calbiochem).
For binding assays and membrane preparations the cell culture medium was removed, cells were washed with PBS. Crude membranes for radioligand binding experiments were prepared by scraping the cells off the dishes in ice cold 20 mM HEPES/0.1 mM KCl/pH 7.2. […]
Binding was terminated by filtration of the incubated membrane preparations using Filtermat B (Pharmacia, Uppsala Sweden) and a Micro Cell Harvester (Skatron, Lier, Norway). The Filtermat B had been presoaked with 1% polyethylenimine and carefully washed with 0.05 M Tris/HCl-buffer pH=7.7 after the filtration to separate free and bound radioactivity. The filters were counted in a scintillation counter (Betaplate 1205, Berthold, Wildbad, Germany) in order to determine the specific binding of [^3H]-Dofetilide.
The optimal amount of membrane preparation in the assay was determined and optimized for each membrane preparation separately in front of using the membranes in compound testing.
The IC50 values in the table below were determined using the Hill-plot, 2-parameter-model.

With `Fc1ccc(-n2cc(Cn3ccnc3C3CC3)nn2)cc1C(F)F` [Example 82, 4-(2-Cyclopropyl-imidazol-1-ylmethyl)-1-(3-difluoromethyl-4-fluoro-phenyl)-1H-[1,2,3]triazole], the Minimum effective dose in assay [1] came to 60 mg/kg.
Take `OCCc1nccn1Cc1cn(-c2ccc(F)c(OC(F)F)c2)nn1` [Example 101, 1-(3-Difluoromethoxy-4-fluoro-phenyl)-4-[2-(2-hydroxy-ethyl)-imidazol-1-ylmethyl]-1H-[1,2,3]triazole]: in assay [1], the Minimum effective dose is given as over 30 mg/kg.
Take `FCCc1nccn1Cc1cn(-c2cc(F)cc(C(F)F)c2)nn1` [Example 104, 1-(3-Difluoromethyl-5-fluoro-phenyl)-4-[2-(2-fluoro-ethyl)-imidazol-1-ylmethyl]-1H-[1,2,3]triazole]: the IC50 at rat NR1/NR2B receptor [2] is 186 nM; at rat NR1/NR2B receptor [3] it was 186 nM; on hERG receptor, 30600 nM.
Take `OCCc1nccn1Cc1cn(-c2ccc(S(F)(F)(F)(F)F)cc2)nn1` [Example 118, 2-(1-((1-(4-(pentafluoro-l6-sulfanyl)phenyl)-1H-1,2,3-triazol-4-yl)methyl)-1H-imidazol-2-yl)ethan-1-ol]: the IC50 at rat NR1/NR2B receptor [2] and at rat NR1/NR2B receptor [3] was 263 nM throughout.
